According to US6344191B2, “Chemical attractants for moths” (The United States of America as represented by the …, priority 1998, dated 2002):

How the values were obtained:
Assay in all cases: Field trapping test, baited Trappit dome traps in apple and pear orchards
Format in all cases: in vivo
Conditions in all cases: for Numbers captured in traps: Experiment 4, 0.25% acetic acid in drowning solution and/or 1 ml alcohol in cap, unbaited control
Lacanobia subjuncta = tested on: Lacanobia subjuncta
Method: (§1) Materials and Methods. The Trappit™ dome trap (Agrisense, Fresno, Calif.) was used in all tests. Two hundred ml of a drowning solution was used in the reservoir of all traps. This solution was 200 ml water, 25 μl of detergent, 50 μl yellow, 25 μl blue, and 60 μl red food dyes (McCormick, Hunt Valley, N.J.), and 20 mg clay. Acetic acid, when tested, was added to the drowning solution as a percent of the solution. Alcohols tested were loaded in polyethylene caps (No. 60975D-3, Kimball Glass, Vineland, N.J.) that were impaled on a push pin glued to the inside of the top of the trap. Traps were serviced two or three times per week depending on weather conditions, and the drowning solution with or without acetic acid was replaced weekly. Alcohols in polyethylene caps were replaced monthly.
(§2) All experiments were conducted in commercial apple and pear orchards. Traps were hung from tree branches at 1.5 to 2 m above ground, with 10 m between traps within a block and 10 m between adjacent blocks.
(§3) Experiment Overview. Four trapping experiments were conducted in apple and pear orchards in the Yakima Valley during the summer of 1998. An initial experiment compared captures of pest moths in traps baited with the combination of acetic acid and 3-methyl-1-butanol to acetic acid alone and to fermented molasses solution. The second experiment was a comparison of the attractiveness of the combination of acetic acid and 3-methyl-1-butanol with varying percentages of acetic acid in the drowning solution. The third experiment was a comparison of the attractiveness of the combination of acetic acid and 3-methyl-1-butanol with varying doses of the 3-methyl-1-butanol in the cap. The fourth experiment was a test of possible synergism or enhancement of acetic acid with 3-methyl-1-butanol and acetic acid with 3-methyl-1-pentanol and a comparison of the two alcohols.
(§4) Trap catch data for each species was subjected to an ANOVA and means were separated by Duncan's New Multiple Range Test for the first and fourth experiments. Linear regression was used to analyze trap data from the second and third experiments to determine if their was a significant relationship between concentration (acetic acid) or dose (3-methyl-1-butanol) and captures of moths in traps.
(§5) Experiment 1. Traps were baited (1) with 0.25% acetic acid in the drowning solution, (2) with 0.5% acetic acid in the drowning solution and one ml of 3-methyl-1-butanol in a polyethylene cap, or (3) with 200 ml of a 10% solution of molasses in water. A randomized complete block design was used, with 4 blocks set up in early May. Traps were maintained through May and June and again in August.
(§6) Experiment 2. Traps were all baited with one ml of 3-methyl-1-butanol in a polyethylene cap and with either no acetic acid in the drowning solution or with 0.008, 0.03, 0.125, 0.5, or 2% glacial acetic acid by volume in the 200 ml of drowning solution. A randomized complete block design was used, with 4 blocks set up in late July, with each of the 6 treatments represented within each block. This experiment was maintained through August and early September.
(§7) Experiment 3. Traps were all baited with 0.25% acetic acid in the drowning solution and either 0, 12.5, 25, 50, or 100% 3-methyl-1-butanol in one ml of a mixture of 3-methyl-1-butanol and mineral oil. A randomized complete block design was used with each of the 5 treatments represented within each block. This experiment was set up in late July and was maintained through early September.
(§8) Experiment 4. Traps were either unbaited (control) or were baited with 0.25% acetic acid in the drowning solution (acetic acid), with 0.25% acetic acid in the drowning solution and one ml of 3-methyl-1-butanol in a polyethylene cap, with 0.25% acetic acid in the drowning solution and one ml of 3-methyl-1-pentanol in a polyethylene cap, with one ml of 3-methyl-1-butanol in a cap, or with one ml of 3-methyl-1-pentanol in a cap.

[1] = tested on: bertha armyworm (Mamestra configurata)
Method: as §1, §2, §3, §4, §5, §6, §7, §8

[2] = tested on: spotted cutworm (Xestia c-nigrum)
Method: as §1, §2, §3, §4, §5
Experiment 4. […]

[3] = Experiment 2, 1 ml 3-methyl-1-butanol in cap, no acetic acid
[4] = Experiment 1, 0.25% acetic acid in drowning solution, 200 ml 10% molasses solution

## CC(C)CCO [3-methyl-1-butanol]
Lacanobia subjuncta; [3]
  Numbers of moths captured in traps: nearly no moths
Lacanobia subjuncta
  Numbers captured in traps: significantly higher than the unbaited traps
[1]; [3]
  Numbers of moths captured in traps: Nearly no
[1]
  Numbers captured in traps: significantly higher than the unbaited traps
[2]
  Numbers captured in traps: significantly higher than the unbaited traps

## CC(=O)O [acetic acid, reference compound]
Lacanobia subjuncta; [4]
  Catches of male or female moths, acetic acid versus molasses: no difference
Lacanobia subjuncta
  Numbers captured in traps: significantly higher than the unbaited traps
[1]; [4]
  Catches of male or female moths, acetic acid versus molasses: no difference
[1]
  Numbers captured in traps: significantly higher than the unbaited traps
[2]; Experiment 1, females, 0.25% acetic acid, 10% molasses solution
  Catches of female moths, acetic acid versus molasses: no difference
[2]
  Numbers captured in traps: significantly higher than the unbaited traps

## CCC(C)CCO (centres unmarked) [3-methyl-1-pentanol]
Lacanobia subjuncta
  Numbers captured in traps: significantly higher than the unbaited traps
[1]
  Numbers captured in traps: significantly higher than the unbaited traps
[2]
  Numbers captured in traps: significantly higher than the unbaited traps
